Data taken from ChEMBL document CHEMBL1122602, “2-Acetylpyridine thiosemicarbazones. 8. Derivatives of 1-acetylisoquinoline as potential antimalarial agents” (1984).

What was measured:
Format in all cases: functional
Mus musculus [1] = assay: Antimalarial activity was assessed against Plasmodium berghei in mice (Mus musculus) at 320 mg/kg dosage of the compound; Cure
Mus musculus [2] = assay: Increase in mean survival time in mice inoculated with Plasmodium berghei days was reported following 40 mg/kg.
Mus musculus [3] = assay: Antimalarial activity was assessed against Plasmodium berghei in mice (Mus musculus) at 160 mg/kg dosage of the compound; Cure
Mus musculus [4] = assay: Antimalarial activity was assessed against Plasmodium berghei in mice (Mus musculus). Increase in mean survival time in days was reported, at 80 mg/kg dosage of the compound.
Mus musculus [5] = assay: Antimalarial activity was assessed against Plasmodium berghei in mice (Mus musculus) at 640 mg/kg dosage of the compound; Cure
Mus musculus [6] = assay: Antimalarial activity was assessed against Plasmodium berghei in mice (Mus musculus). Increase in mean survival time in days was reported at 160 mg/kg dosage of the compound.
Mus musculus [7] = assay: Antimalarial activity was assessed against Plasmodium berghei in mice (Mus musculus). Increase in mean survival time in days was reported at 640 mg/kg dosage of the compound.
Mus musculus [8] = assay: Antimalarial activity was assessed against Plasmodium berghei in mice (Mus musculus) at 80 mg/kg dosage of the compound; Cure
Mus musculus [9] = assay: Antimalarial activity was assessed against Plasmodium berghei in mice (Mus musculus). Increase in mean survival time in days was reported at 320 mg/kg dosage of the compound.
Mus musculus [10] = assay: Antimalarial mice (Mus musculus) at 320 mg/kg dosage of the compound; Cure
Mus musculus [11] = assay: Antimalarial activity was assessed against Plasmodium berghei in mice (Mus musculus) at 40 mg/kg dosage of the compound; Cure

Structure (SMILES)	No. of cures (Mus musculus [1]) [count]	Increase in mean survival time (Mus musculus [2]) [days]	No. of cures (Mus musculus [3]) [count]	Increase in mean survival time (Mus musculus [4]) [days]	No. of cures (Mus musculus [5])	Mean survival time (Mus musculus [6]) [days]	Mean survival time (Mus musculus [7]) [days]	No. of cures (Mus musculus [8])	Mean survival time (Mus musculus [9]) [days]	No. of cures (Mus musculus [10]) [count]	No. of cures (Mus musculus [11]) [count]
C/C(=N\N=C(/S)N(C)C1CCCCC1)c1nccc2ccccc12	3	9.5	3	7.9	–	–	–	–	–	–	–
C/C(=N\N=C(/S)N1CC(C)OC(C)C1)c1nccc2ccccc12 (stereo not given)	3	3.5	3	8.6	1	–	–	–	–	–	–
CC(N/N=C(\S)NCc1ccccc1)c1nccc2ccccc12 (stereo not given)	–	0.3	–	–	–	0.9	0.1	–	–	–	–
C/C(=N\N=C(/S)N1CCC(c2ccccc2)CC1)c1nccc2ccccc12	1	2.7	1	5.7	4	–	–	–	–	–	–
CC(N/N=C(\S)N1CCC(c2ccccc2)CC1)c1nccc2ccccc12 (stereo not given)	1	1.6	2	1	4	–	–	–	–	–	–
C/C(=N\N=C(/S)N1CCCCCC1)c1nccc2ccccc12	2	7.8	1	6.9	1	–	–	–	–	–	–
C/C(=N\N=C(/S)N(C)C)c1nccc2ccccc12	–	7.3	–	–	–	9.2	–	1	–	–	–
CC(N/N=C(\S)N1CCN(c2ccccn2)CC1)c1nccc2ccccc12 (stereo not given)	–	1.6	–	2.7	3	6.6	–	–	7.7	–	–
CC(N/N=C(\S)N(C)C)c1nccc2ccccc12 (stereo not given)	–	6.2	2	–	–	–	–	–	–	–	–
CC1CCN(/C(S)=N/NC(C)c2nccc3ccccc23)CC1 (stereo not given)	–	7.6	3	8.9	–	–	–	–	–	–	–
CC(N/N=C(\S)N1CCCCCC1)c1nccc2ccccc12 (stereo not given)	–	5.1	3	7.1	2	–	–	–	–	2	–
CC(N/N=C(\S)N(C)C1CCCCC1)c1nccc2ccccc12 (stereo not given)	1	–	2	–	1	–	–	3 count	–	–	2
CC(N/N=C(\S)N1CCCC1)c1nccc2ccccc12 (stereo not given)	3	5.1	3	7.1	1	–	–	–	–	–	–
C/C(=N\N=C(/S)N1CCC(C)CC1)c1nccc2ccccc12	–	1	2	–	–	–	–	1 count	–	–	–
C/C(=N\N=C(/S)N1CCCC1)c1nccc2ccccc12	2	3.5	2	2	–	–	–	–	–	–	–
CC(N/N=C(\S)N1CC2CCC(CC2)C1)c1nccc2ccccc12 (stereo not given)	4	9.7	5	–	3	–	–	1 count	–	–	–
CC1CN(/C(S)=N/NC(C)c2nccc3ccccc23)CC(C)O1 (stereo not given)	3	5.9	2	5.7	2	–	–	–	–	–	–
C/C(=N\N=C(/S)N1CC2CCC(CC2)C1)c1nccc2ccccc12	5	–	5	–	5	–	–	3 count	–	–	2
C/C(=N\N=C(/S)NCc1ccccc1)c1nccc2ccccc12	–	0.1	–	–	–	0.9	0.5	–	–	–	–
